Like-named read-outs stand apart in the source and are kept apart here.
Assays:
[1] = cited from earlier work
[2] = cited from earlier work; remark: listed apart in the source
[3] = cited from earlier work; remark: listed apart in the source
[4] = low doses, 75-100 mg daily; cited from earlier work
[5] = for level of salicylic acid in the blood: 1000 mg under the tongue
Experimental: In order to assess the ability and the rate of absorption of a choline salicylate tablet under the tongue, the following experiment was conducted:

CC(=O)Oc1ccccc1C(=O)O [Aspirin, acetyl salicylic acid]
patients who develop ulcers, perforations, bleeding, obstruction, stricture and/or enteropathy ([1]; patients taking aspirin): More than 22%
level of salicylic acid in the blood ([2]; after digestion of 1000 mg, reached after 2 hours only): 100 mg/Lt
water solubility [3]: not soluble in water
reduction of coronary events [4]: 50%

C[N+](C)(C)CCO.O=C([O-])c1ccccc1O [choline salicylate]
reduction of gastrointestinal complications ([1]; as a salt syrup (compared to acid tablet)): 40%
side effects in clinical use ([1]; syrup absorbed through the gastro intestinal tract): no major side effects
level of salicylic acid in the blood ([5]; after 4 minutes): 21 mg/Lt
level of salicylic acid in the blood ([5]; time 0 min): 0.111 mmol/L
level of salicylic acid in the blood ([5]; time 0 min, conversion factor 0.00724): 15.331 mg/L
level of salicylic acid in the blood ([5]; time 2 min): 0.124 mmol/L
level of salicylic acid in the blood ([5]; time 2 min, conversion factor 0.00724): 17.127 mg/L
level of salicylic acid in the blood ([5]; time 4 min): 0.155 mmol/L
level of salicylic acid in the blood ([5]; time 4 min, conversion factor 0.00724): 21.409 mg/L
level of salicylic acid in the blood ([5]; time 6 min): 0.132 mmol/L
level of salicylic acid in the blood ([5]; time 6 min, conversion factor 0.00724): 18.232 mg/L
level of salicylic acid in the blood ([5]; time 8 min): 0.096 mmol/L
level of salicylic acid in the blood ([5]; time 8 min, conversion factor 0.00724): 13.260 mg/L
level of salicylic acid in the blood ([5]; time 10 min): 0.089 mmol/L
level of salicylic acid in the blood ([5]; time 10 min, conversion factor 0.00724): 12.293 mg/L
level of salicylic acid in the blood ([5]; time 12 min): 0.074 mmol/L
level of salicylic acid in the blood ([5]; time 12 min, conversion factor 0.00724): 10.221 mg/L
level of salicylic acid in the blood ([5]; time 14 min): 0.067 mmol/L
level of salicylic acid in the blood ([5]; time 14 min, conversion factor 0.00724): 9.254 mg/L
level of salicylic acid in the blood ([5]; time 19 min): 0.039 mmol/L
level of salicylic acid in the blood ([5]; time 19 min, conversion factor 0.00724): 5.387 mg/L
level of salicylic acid in the blood ([5]; time 24 min): 0.023 mmol/L
level of salicylic acid in the blood ([5]; time 24 min, conversion factor 0.00724): 3.177 mg/L
level of salicylic acid in the blood ([5]; time 29 min): 0.040 mmol/L
level of salicylic acid in the blood ([5]; time 29 min, conversion factor 0.00724): 5.525 mg/L
level of salicylic acid in the blood ([5]; time 34 min): 0.036 mmol/L
level of salicylic acid in the blood ([5]; time 34 min, conversion factor 0.00724): 4.972 mg/L
level of salicylic acid in the blood ([5]; time 39 min): 0.045 mmol/L
level of salicylic acid in the blood ([5]; time 39 min, conversion factor 0.00724): 6.215 mg/L
level of salicylic acid in the blood ([5]; time 44 min): 0.054 mmol/L
level of salicylic acid in the blood ([5]; time 44 min, conversion factor 0.00724): 7.459 mg/L
salicylic acid presented and available to act in the blood ([5]; 4 minutes after administration, assuming the blood volume is 5 litres): 100 mg
time of salicylic acid blood level peak after administration ([5]; sublingual method): 4 min
time of salicylic acid blood level peak after administration ([2]; oral administration): 2 h
